Data reported in patent US20230026259A1, “CA2 COMPOSITIONS AND METHODS FOR TUNABLE REGULATION” (Obsidian Therapeutics, Inc., priority 2019, published 2023).

Experiments:
Type in all cases: cell-based
NIH3T3 cells [1] = test: Destabilization mutant screening of human CA2 linked to GFP, ligand response by FACS (Valdecoxib, Celecoxib, Acetazolamide)
NIH3T3 cells [2] = test: Immunoblotting of cell lysates for GFP after ligand treatment; conditions: 24 hours; for GFP protein expression by immunoblot, Celecoxib or Valdecoxib: NIH3T3 cells, 1, 3, 10 or 30 μM Celecoxib or Valdecoxib
Method: The protein expression in the presence of ligand was measured by immunoblotting the cell lysates for GFP.
The protein expression in the presence of ligand was measured by immunoblotting cell lysates for GFP.

NIH3T3 cells [3] = test: Destabilization mutant screening of human CA2 linked to GFP, ligand response by FACS (Valdecoxib, Celecoxib, Acetazolamide); conditions: for stabilization with varying doses of Valdecoxib or Celecoxib: NIH3T3 cells, FACS
Method: To identify destabilizing mutations of human CA2 that are stabilized upon ligand binding to CA2, two rounds of mutant screening were performed, using a lentivirus CA2 mutant library provided by Genscript (China). These methods were used to generate a library of mutant polypeptides using mutagenesis primers and error prone PCR. Lentiviral vectors expressing the template, wild-type human CA2 operably linked to GFP(OT-001986) was also provided by Genscript along with the CA2 mutant library. The library was packaged into lentivirus, transduced into NIH3T3 cells at a multiplicity of infection (MOI) of approximately 0.3 and select stable cell pools were derived by selecting with selection marker puromycin.
To identify cell pools containing destabilizing mutants of CA2 that are stabilizing when CA2 is bound to its corresponding ligand, cells were sorted using FACS. In the initial round, the bottom 15% of population that was GFP negative in the absence of ligand was selected. Cells were expanded and then treated with 10 μM Celecoxib for 24 hours and harvested for cell sorting. The top 11% GFP positive cells which were also responsive to ligand treatment compared to untreated were collected. Celecoxib was removed from the cultures and replaced with DMSO. […] Genomic DNA was isolated and amplified CA2 mutants were reintroduced to the lentiviral vectors where CA2 was operably linked to GFP. The constructs were transduced into NIH3T3 cells with lentivirus vectors for each clone. The cells were treated with 10 μM Valdecoxib or 10 μM Celecoxib for 24 hours and analyzed by FACS. […] In Table 25, the Construct ID (OT-XXXXXX) refers to the construct which includes the referenced CA2 mutant and the Library ID (LibCXXXXXX) refers to the CA2 mutant itself.
The response of NIH3T3 cells to varying doses of Valdecoxib or Celecoxib for 24 hours was measured and analyzed by FACS.
Clones treated with different ligands were compared to examine the behavior of each mutant with the ligands.

[4] = NIH3T3, Acetazolamide 0.03 μM vs DMSO
[5] = NIH3T3, DMSO (reference), Acetazolamide experiment
[6] = NIH3T3, 10 μM Celecoxib vs DMSO
[7] = NIH3T3, 10 μM Valdecoxib vs DMSO
[8] = NIH3T3, Acetazolamide 0.03 μM, 24 hours
[9] = NIH3T3, Acetazolamide 0.1 μM vs DMSO
[10] = NIH3T3, Acetazolamide 0.1 μM, 24 hours
[11] = NIH3T3, Acetazolamide 0.3 μM vs DMSO
[12] = NIH3T3, Acetazolamide 0.3 μM, 24 hours
[13] = NIH3T3, Acetazolamide 1 μM vs DMSO
[14] = NIH3T3, Acetazolamide 1 μM, 24 hours
[15] = NIH3T3, Acetazolamide 3 μM vs DMSO
[16] = NIH3T3, Acetazolamide 3 μM, 24 hours
[17] = NIH3T3, Acetazolamide 10 μM vs DMSO
[18] = NIH3T3, Acetazolamide 10 μM, 24 hours
[19] = NIH3T3, Acetazolamide 30 μM vs DMSO
[20] = NIH3T3, Acetazolamide 30 μM, 24 hours
[21] = NIH3T3, Celecoxib 0 μM, 24 hours
[22] = NIH3T3, Celecoxib 0.03 μM, 24 hours
[23] = NIH3T3, Celecoxib 0.1 μM, 24 hours
[24] = NIH3T3, Celecoxib 0.3 μM, 24 hours
[25] = NIH3T3, Celecoxib 1 μM, 24 hours
[26] = NIH3T3, Celecoxib 3 μM, 24 hours
[27] = NIH3T3, Celecoxib 10 μM, 24 hours
[28] = NIH3T3, Celecoxib 30 μM, 24 hours
[29] = NIH3T3, DMSO, 24 hours (Acetazolamide experiment)
[30] = NIH3T3, Valdecoxib 0 μM, 24 hours
[31] = NIH3T3, Valdecoxib 0.03 μM, 24 hours
[32] = NIH3T3, Valdecoxib 0.1 μM, 24 hours
[33] = NIH3T3, Valdecoxib 0.3 μM, 24 hours
[34] = NIH3T3, Valdecoxib 1 μM, 24 hours
[35] = NIH3T3, Valdecoxib 3 μM, 24 hours
[36] = NIH3T3, Valdecoxib 10 μM, 24 hours
[37] = NIH3T3, Valdecoxib 30 μM, 24 hours

Substance: CA2 (aa 2-260 of WT, L156H, S172C, F178Y, E186D) [LibC000193]
- Fold change (NIH3T3 cells [1]; [4]): 1.53
- Fold change (NIH3T3 cells [1]; [5]): 1
- GFP protein expression by immunoblot, Acetazolamide (NIH3T3 cells [2]; NIH3T3 cells, 0.3, 1, 3, 10 or 30 μM Acetazolamide): stabilization of GFP with increasing ligand doses
- GFP protein expression by immunoblot, Celecoxib or Valdecoxib (NIH3T3 cells [2]): stabilization of GFP with increasing ligand doses
- Median PE (NIH3T3 cells [3]; NIH3T3, 10 μM Celecoxib): 7428
- SR (stabilization ratio) (NIH3T3 cells [3]; [6]): 10.71
- Median PE (NIH3T3 cells [3]; NIH3T3, 10 μM Valdecoxib): 6445
- SR (stabilization ratio) (NIH3T3 cells [3]; [7]): 9.3
- Median FITC / Median PE (NIH3T3 cells [3]; [8]): 854
- Fold change (NIH3T3 cells [3]; [9]): 2.92
- Median FITC / Median PE (NIH3T3 cells [3]; [10]): 1628
- Fold change (NIH3T3 cells [3]; [11]): 6.59
- Median FITC / Median PE (NIH3T3 cells [3]; [12]): 3669
- Fold change (NIH3T3 cells [3]; [13]): 13.34
- Median FITC / Median PE (NIH3T3 cells [3]; [14]): 7445
- Fold change (NIH3T3 cells [3]; [15]): 18.31
- Median FITC / Median PE (NIH3T3 cells [3]; [16]): 10200
- MFI, comparative analysis (NIH3T3 cells [3]; NIH3T3, Acetazolamide 10 μM): 11900
- Fold change (NIH3T3 cells [3]; [17]): 21.36
- Median FITC / Median PE (NIH3T3 cells [3]; [18]): 11900
- MFI, comparative analysis (NIH3T3 cells [3]; NIH3T3, Acetazolamide 30 μM): 12900
- Fold change (NIH3T3 cells [3]; [19]): 23.16
- Median FITC / Median PE (NIH3T3 cells [3]; [20]): 12900
- Med (median fluorescence intensity) (NIH3T3 cells [3]; [21]): 826
- SR (stabilization ratio) (NIH3T3 cells [3]; [21]): 1
- Med (median fluorescence intensity) (NIH3T3 cells [3]; [22]): 935
- SR (stabilization ratio) (NIH3T3 cells [3]; [22]): 1.13
- Med (median fluorescence intensity) (NIH3T3 cells [3]; [23]): 1005
- SR (stabilization ratio) (NIH3T3 cells [3]; [23]): 1.22
- Med (median fluorescence intensity) (NIH3T3 cells [3]; [24]): 1211
- SR (stabilization ratio) (NIH3T3 cells [3]; [24]): 1.47
- Med (median fluorescence intensity) (NIH3T3 cells [3]; [25]): 2058
- SR (stabilization ratio) (NIH3T3 cells [3]; [25]): 2.49
- Med (median fluorescence intensity) (NIH3T3 cells [3]; [26]): 4283
- SR (stabilization ratio) (NIH3T3 cells [3]; [26]): 5.19
- Med (median fluorescence intensity) (NIH3T3 cells [3]; [27]): 7751
- SR (stabilization ratio) (NIH3T3 cells [3]; [27]): 9.38
- Med (median fluorescence intensity) (NIH3T3 cells [3]; [28]): 11100
- SR (stabilization ratio) (NIH3T3 cells [3]; [28]): 13.44
- MFI, comparative analysis, normalized to parental day 1 (NIH3T3 cells [3]; NIH3T3, Celecoxib μM (concentration not given)): 6910.53
- MFI, comparative analysis (NIH3T3 cells [3]; NIH3T3, DMSO): 557
- Median PE (NIH3T3 cells [3]; NIH3T3, DMSO): 693
- SR (stabilization ratio) (NIH3T3 cells [3]; NIH3T3, DMSO (reference)): 1
- Median FITC / Median PE (NIH3T3 cells [3]; [29]): 557
- Med (median fluorescence intensity) (NIH3T3 cells [3]; [30]): 826
- SR (stabilization ratio) (NIH3T3 cells [3]; [30]): 1
- Med (median fluorescence intensity) (NIH3T3 cells [3]; [31]): 932
- SR (stabilization ratio) (NIH3T3 cells [3]; [31]): 1.13
- Med (median fluorescence intensity) (NIH3T3 cells [3]; [32]): 1013
- SR (stabilization ratio) (NIH3T3 cells [3]; [32]): 1.23
- Med (median fluorescence intensity) (NIH3T3 cells [3]; [33]): 1064
- SR (stabilization ratio) (NIH3T3 cells [3]; [33]): 1.29
- Med (median fluorescence intensity) (NIH3T3 cells [3]; [34]): 1583
- SR (stabilization ratio) (NIH3T3 cells [3]; [34]): 1.92
- Med (median fluorescence intensity) (NIH3T3 cells [3]; [35]): 3667
- SR (stabilization ratio) (NIH3T3 cells [3]; [35]): 4.44
- Med (median fluorescence intensity) (NIH3T3 cells [3]; [36]): 7449
- SR (stabilization ratio) (NIH3T3 cells [3]; [36]): 9.02
- Med (median fluorescence intensity) (NIH3T3 cells [3]; [37]): 9460
- SR (stabilization ratio) (NIH3T3 cells [3]; [37]): 11.45
- MFI, comparative analysis, normalized to parental day 1 (NIH3T3 cells [3]; NIH3T3, Valdecoxib μM (concentration not given)): 6641.277
- stabilization with varying doses of Valdecoxib or Celecoxib (NIH3T3 cells [3]; 24 hours): dose dependent stabilization

Substance: CA2 (aa 2-260 of WT, R27L, T87I, H122Y, N252D) [LibC000226]
- Fold change (NIH3T3 cells [1]; [4]): 1.31
- Fold change (NIH3T3 cells [1]; [5]): 1
- GFP protein expression by immunoblot, Celecoxib or Valdecoxib (NIH3T3 cells [2]): stabilization of GFP with increasing ligand doses
- Median PE (NIH3T3 cells [3]; NIH3T3, 10 μM Celecoxib): 3816
- SR (stabilization ratio) (NIH3T3 cells [3]; [6]): 8.65
- Median PE (NIH3T3 cells [3]; NIH3T3, 10 μM Valdecoxib): 3588
- SR (stabilization ratio) (NIH3T3 cells [3]; [7]): 7.93
- Median FITC / Median PE (NIH3T3 cells [3]; [8]): 499
- Fold change (NIH3T3 cells [3]; [9]): 1.85
- Median FITC / Median PE (NIH3T3 cells [3]; [10]): 704
- Fold change (NIH3T3 cells [3]; [11]): 3.58
- Median FITC / Median PE (NIH3T3 cells [3]; [12]): 1360
- Fold change (NIH3T3 cells [3]; [13]): 9.46
- Median FITC / Median PE (NIH3T3 cells [3]; [14]): 3594
- Fold change (NIH3T3 cells [3]; [15]): 17.49
- Median FITC / Median PE (NIH3T3 cells [3]; [16]): 6645
- Fold change (NIH3T3 cells [3]; [17]): 24.46
- Median FITC / Median PE (NIH3T3 cells [3]; [18]): 9295
- Fold change (NIH3T3 cells [3]; [19]): 28.68
- Median FITC / Median PE (NIH3T3 cells [3]; [20]): 10900
- Med (median fluorescence intensity) (NIH3T3 cells [3]; [21]): 531
- SR (stabilization ratio) (NIH3T3 cells [3]; [21]): 1
- Med (median fluorescence intensity) (NIH3T3 cells [3]; [22]): 711
- SR (stabilization ratio) (NIH3T3 cells [3]; [22]): 1.34
- Med (median fluorescence intensity) (NIH3T3 cells [3]; [23]): 661
- SR (stabilization ratio) (NIH3T3 cells [3]; [23]): 1.24
- Med (median fluorescence intensity) (NIH3T3 cells [3]; [24]): 750
- SR (stabilization ratio) (NIH3T3 cells [3]; [24]): 1.41
- Med (median fluorescence intensity) (NIH3T3 cells [3]; [25]): 1207
- SR (stabilization ratio) (NIH3T3 cells [3]; [25]): 2.27
- Med (median fluorescence intensity) (NIH3T3 cells [3]; [26]): 2544
- SR (stabilization ratio) (NIH3T3 cells [3]; [26]): 4.79
- Med (median fluorescence intensity) (NIH3T3 cells [3]; [27]): 5227
- SR (stabilization ratio) (NIH3T3 cells [3]; [27]): 9.84
- Med (median fluorescence intensity) (NIH3T3 cells [3]; [28]): 7171
- SR (stabilization ratio) (NIH3T3 cells [3]; [28]): 13.5
- Median PE (NIH3T3 cells [3]; NIH3T3, DMSO): 441
- SR (stabilization ratio) (NIH3T3 cells [3]; NIH3T3, DMSO (reference)): 1
- Median FITC / Median PE (NIH3T3 cells [3]; [29]): 380
- Med (median fluorescence intensity) (NIH3T3 cells [3]; [30]): 531
- SR (stabilization ratio) (NIH3T3 cells [3]; [30]): 1
- Med (median fluorescence intensity) (NIH3T3 cells [3]; [31]): 580
- SR (stabilization ratio) (NIH3T3 cells [3]; [31]): 1.09
- Med (median fluorescence intensity) (NIH3T3 cells [3]; [32]): 623
- SR (stabilization ratio) (NIH3T3 cells [3]; [32]): 1.17
- Med (median fluorescence intensity) (NIH3T3 cells [3]; [33]): 655
- SR (stabilization ratio) (NIH3T3 cells [3]; [33]): 1.23
- Med (median fluorescence intensity) (NIH3T3 cells [3]; [34]): 873
- SR (stabilization ratio) (NIH3T3 cells [3]; [34]): 1.64
- Med (median fluorescence intensity) (NIH3T3 cells [3]; [35]): 1572
- SR (stabilization ratio) (NIH3T3 cells [3]; [35]): 2.96
- Med (median fluorescence intensity) (NIH3T3 cells [3]; [36]): 3902
- SR (stabilization ratio) (NIH3T3 cells [3]; [36]): 7.35
- Med (median fluorescence intensity) (NIH3T3 cells [3]; [37]): 6245
- SR (stabilization ratio) (NIH3T3 cells [3]; [37]): 11.76
- stabilization with varying doses of Valdecoxib or Celecoxib (NIH3T3 cells [3]; 24 hours): dose dependent stabilization
